This note sets out measurements from US11116752B2, “Pharmaceutical composition comprising bicyclo-substituted pyrazolon azo derivative or salt thereof and preparation method thereof” (Jiangsu Hengrui Medicine Co., Ltd., priority 2016, dated 2021).

A short description of the series: Stability test of Compound B and its mixtures with fillers (1:10). Type of series: physicochemical. As for the experimental part:
The Compound B was mixed respectively with cellulose-lactose (cellactose 80), a simple mixture of cellulose and lactose (75%:25%), spray-dried lactose (Flowlac 100), microcrystalline cellulose PH302, or microcrystalline cellulose PH102 in a ratio of 1:10. The above mixtures and Compound B were placed respectively under conditions of 40° C./RH75%/open, 40° C./RH75%/closed, or 60° C./closed for 2 weeks and 4 weeks.

Regarding `CC1=NN(c2ccc3c(c2)CCCC3)C(=O)/C1=N\Nc1cccc(-c2ccc(C(=O)O)o2)c1O` [Compound B, (Z)-5-(2-hydroxy-3-(2-(3-methyl-5-oxo-1-(5,6,7,8-tetrahydronaphthalen-2-yl)-1H-pyrazol-4(5H)-ylidene)hydrazino)phenyl)furan-2-carboxylic acid], the Appearance entry (40° C./RH75%/closed, 2 Weeks) is on record as “Dark red powder”; the Appearance result (40° C./RH75%/closed, 4 Weeks) is “Dark red powder”; the Appearance entry (40° C./RH75%/open, 2 Weeks) was “Dark red mass”; the Appearance entry (40° C./RH75%/open, 4 Weeks) is listed as “Dark red mass”; the Appearance result (60° C./closed, 2 Weeks) is recorded as “Dark red mass”; the Appearance result (60° C./closed, 4 Weeks) is given as “Dark red mass”. In addition, the Appearance result (Initial point, 0 Day) was “Dark red powder”. Also, the “Related substances (%)” value amounted to 1.08% (40° C./RH75%/closed, 2 Weeks); 1.18% (40° C./RH75%/closed, 4 Weeks); 1.32% (40° C./RH75%/open, 2 Weeks); 1.93% (40° C./RH75%/open, 4 Weeks); 3.05% (60° C./closed, 2 Weeks); 4.84% (60° C./closed, 4 Weeks). In addition, the “Related substances (%)” value (Initial point, 0 Day) was 0.90%.
